Results from patent US8361964B2, “Growth hormone releasing factor (GRF) analogs and uses thereof” (Theratechnologies Inc., priority 2011, dated 2013).
Where a SMILES comes first, the peptide text is derived from it.

How the values were obtained:
[1] = tested on: Growth Hormone secretion; test: Growth Hormone secretion in female rats after subcutaneous GRF analog; format: in vivo; details: female Sprague-Dawley rats; 10 μg/rat subcutaneous; plasma 0-60 minutes
How it was run: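 Female Sprague-Dawley rats (250–300 g), isoflurane-anaesthetised with carotid cannula, got GRF analog 10 μg/rat s.c. in 20 mM AcONa + 5% mannitol, pH 5. Blood was drawn at 0, 10, 20, 30, 45 and 60 min (4–8 rats per group per time point). Plasma GH was measured by rat/mouse GH ELISA on 20-fold diluted samples.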

[2] = target: T1, human GRF receptor (Homo sapiens, UniProt Q02643); test: Alkaline phosphatase (AP) assay, GHRHr agonist activity; format: cell-based; details: BHK cells stably expressing human GRF receptor and alkaline phosphatase reporter gene; 24 hrs stimulation; read-out: EC50 (nM) as assessed by alkaline phosphatase (AP) induction
T1 construct: expressed in transfected cells; host or cells: baby hamster kidney (BHK) cells, stably transfected
T1 sequence (Q02643 23-423): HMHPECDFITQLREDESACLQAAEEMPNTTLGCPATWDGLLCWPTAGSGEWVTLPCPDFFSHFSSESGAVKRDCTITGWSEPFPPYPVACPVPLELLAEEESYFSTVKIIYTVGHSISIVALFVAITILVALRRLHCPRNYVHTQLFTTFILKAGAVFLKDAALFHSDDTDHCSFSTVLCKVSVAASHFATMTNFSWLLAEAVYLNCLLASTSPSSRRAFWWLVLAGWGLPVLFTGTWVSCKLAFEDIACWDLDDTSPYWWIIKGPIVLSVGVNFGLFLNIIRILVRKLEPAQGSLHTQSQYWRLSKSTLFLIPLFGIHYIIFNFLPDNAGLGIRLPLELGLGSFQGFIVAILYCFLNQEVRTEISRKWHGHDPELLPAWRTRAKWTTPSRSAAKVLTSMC
Description: The activity of representative GRF peptides was tested on baby hamster kidney (BHK) cells stably transfected to express the human GRF receptor and an alkaline phosphatase reporter gene. Cells were cultured 24 hours before stimulation, in 96-well plates, at a concentration of 0.5×10^5 cells/well. Before stimulation, cells were washed twice with DPBS and incubated 10-30 min in assay buffer (DMEM without phenol red supplemented with 20 mM HEPES and 1% heat inactivated fetal bovine serum (FBS). The dose response curve of the GRF peptides was done for 24 hrs with concentrations of peptides from 10^−5 M to 10^−11 M. Supernatant was collected and analysis of alkaline phosphatase levels was performed using the Alkaline Phosphatase detection kit from Applied Biosystems.
The in vitro activity of representative GRF analogs was tested on baby hamster kidney (BHK) cells expressing human GHRHr.

[3] = tested on: Growth Hormone secretion; test: Growth Hormone secretion in female mice after subcutaneous GRF analog; format: in vivo; details: female CD-1 mice; 10 μg/mouse subcutaneous; plasma 10 minutes after injection
How it was run: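 Female CD-1 mice (20–25 g) got a subcutaneous dose of 10 μg/mouse GRF analog in 20 mM sodium acetate + 5% mannitol, pH 5. Plasma was taken by cardiac puncture 10 min after dosing into K3EDTA. GH was measured by rat/mouse GH ELISA on 20-fold diluted plasma.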

[4] = following intravenous injection in humans; cited from earlier work

Row | Compound | Mean AUC (GH Area Under the curve, GH concentration over time) [1] | Mean Cmax (ng/ml) of Growth Hormone secretion [1] | EC50 [2] | GH levels 10 min [3] | half-life [4]
1 | CC[C@H](C)[C@H](NC(=O)[C@H](C)NC(=O)[C@H](CC(=O)O)NC(=O)[C@@H](C)NC(=O)[C@@H](N)Cc1ccc(O)cc1)C(=O)N[C@@H](Cc1ccccc1)C(=O)N[C@H](C(=O)N[C@@H](CC(=O)O)C(=O)N[C@@H](CO)C(=O)N[C@@H](Cc1ccc(O)cc1)C(=O)N[C@@H](CCCNC(=N)N)C(=O)N[C@@H](CCCCN)C(=O)N[C@H](C(=O)N[C@@H](CC(C)C)C(=O)N[C@@H](C)C(=O)N[C@@H](CCC(N)=O)C(=O)N[C@@H](CC(C)C)C(=O)N[C@@H](CCCCN)C(=O)N[C@@H](C)C(=O)N[C@@H](CCCNC(=N)N)C(=O)N[C@@H](CCC(N)=O)C(=O)N[C@@H](CC(=O)O)C(=O)N[C@H](C(=O)N[C@@H](CC(C)C)C(=O)N[C@@H](C)C(=O)N[C@@H](CCCNC(=N)N)C(=O)N[C@@H](C)C(=O)N[C@@H](C)C(=O)N[C@@H](CCCNC(=N)N)C(=O)N[C@@H](C)C(=O)N[C@@H](C)C(=O)N[C@@H](CCCNC(=N)N)C(N)=O)[C@@H](C)CC)C(C)C)[C@@H](C)O [SEQ ID NO: 28, Y-a-DAIFTDSYRKVLAQLKARQDILARAARAAR-NH2] (HELM PEPTIDE1{Y.[dA].D.A.I.F.T.D.S.Y.R.K.V.L.A.Q.L.K.A.R.Q.D.I.L.A.R.A.A.R.A.A.R.[am]}$$$$V2.0) | 17633 | 806.2 ng/mL | 0.11 nM | 449.7 ng/mL | 
2 | Ac-YADAIFTDSYRKVLAQLSARKLLQDILSR-NH2 [SEQ ID NO: 43, Ac-YADAIFTDSYRKVLAQLSARKLLQDILSR-NH2, reference compound] | 2128 | 83.6 ng/mL | 0.25 nM | 277 ng/mL | 
3 | Tyr-Ala-Asp-Ala-Ile-Phe-Thr-Asn-Ser-Tyr-Arg-Lys-Val-Leu-Gly-Gln-Leu-Ser-Ala-Arg-Lys-Leu-Leu-Gln-Asp-Ile-Met-Ser-Arg [hGRF(1-29)] |  |  |  |  | approximately 12 min
4 | CC/C=C/CC(=O)N[C@@H](Cc1ccc(O)cc1)C(=O)N[C@@H](C)C(=O)N[C@@H](CC(=O)O)C(=O)N[C@@H](C)C(=O)N[C@H](C(=O)N[C@@H](Cc1ccccc1)C(=O)N[C@H](C(=O)N[C@@H](CC(=O)O)C(=O)N[C@@H](CO)C(=O)N[C@@H](Cc1ccc(O)cc1)C(=O)N[C@@H](CCCNC(=N)N)C(=O)N[C@@H](CCCCN)C(=O)N[C@H](C(=O)N[C@@H](CC(C)C)C(=O)N[C@@H](C)C(=O)N[C@@H](CCC(N)=O)C(=O)N[C@@H](CC(C)C)C(=O)N[C@@H](CCCCN)C(=O)N[C@@H](C)C(=O)N[C@@H](CCCNC(=N)N)C(=O)N[C@@H](CCC(N)=O)C(=O)N[C@@H](CC(=O)O)C(=O)N[C@@H](CC(C)C)C(=O)N[C@@H](CC(C)C)C(=O)N[C@@H](C)C(=O)N[C@@H](CCCNC(=N)N)C(=O)N[C@@H](C)C(=O)N[C@@H](C)C(=O)N[C@@H](CCCNC(=N)N)C(=O)N[C@@H](C)C(=O)N[C@@H](C)C(=O)N[C@@H](CCCNC(=N)N)C(N)=O)C(C)C)[C@@H](C)O)[C@@H](C)CC [SEQ ID NO: 32, Trans-3-hexenoyl-YADAIFTDSYRKVLAQLKARQDLLARAARAAR-NH2] (HELM PEPTIDE1{[CC/C=C/CC(=O)[*:2]].Y.A.D.A.I.F.T.D.S.Y.R.K.V.L.A.Q.L.K.A.R.Q.D.L.L.A.R.A.A.R.A.A.R.[am]}$$$$V2.0) | 10500 | 514.8 ng/mL | 0.11 nM | 401.6 ng/mL | 
